# In PubChem BioAssay AID977613 (Broad Institute, 2014):
# The source made the active and inactive calls. The rule behind the calls is not given here.
# System: Broad 7084-01 inhibitor HTS, set 2
# Assay: single-concentration hits, screen 7084 set 2 (AID 977613);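 note: host cells are infected with parasite promastigotes that become internalized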
row,Structure (SMILES),active concentration
1,O=C(C1CCCCC1)N1CC2(C1)[C@H](c1ccccc1)[C@@H](CO)N2C(=O)c1cccnc1,> 10 µM (inactive)
2,CN1CCN(C(=O)C[C@@H]2CC[C@@H]3[C@H](COC[C@H](O)CN3CC3CC3)O2)CC1,> 10 µM (inactive)
3,O=C([C@@H]1[C@@H](CO)[C@@H]2Cn3c(cccc3=O)[C@H]1N2CC1CC1)N1CCc2ccccc2C1,> 10 µM (inactive)
4,CN1C[C@H](O)COC[C@@H]2O[C@H](CC(=O)NC3CCCC3)CC[C@H]21,> 10 µM (inactive)
5,CCS(=O)(=O)N1CC2(C1)CN(S(=O)(=O)c1ccccc1)[C@H](CO)c1c2c2ccc(OC)cc2n1C,> 10 µM (inactive)
6,C/C=C/c1ccccc1[C@@H]1[C@@H](CO)N(C(=O)Cc2ccccn2)[C@H]1C#N,> 10 µM (inactive)
7,N#C[C@H]1[C@@H](c2ccccc2C2=CCCCC2)[C@H](CO)N1C(=O)C1CCOCC1,> 10 µM (inactive)
8,COc1cccc(C(=O)N2C[C@@H]3[C@H](c4ccccc42)[C@H](CO)N3Cc2ccccc2Cl)c1,> 10 µM (inactive)
9,CN1C(=O)c2cc(NC(=O)Cc3cccs3)ccc2OC[C@H]2O[C@H](CC(=O)N[C@H]3CCN(Cc4ccccc4)C3)CC[C@H]21,> 10 µM (inactive)
10,C/C=C/c1ccc([C@@H]2[C@@H](CO)N(C(=O)C3CCOCC3)C23CN(C(=O)NC(C)C)C3)cc1,> 10 µM (inactive)
11,C/C=C/c1ccc([C@H]2[C@@H](CO)N3C(=O)CN(S(=O)(=O)c4ccccc4)C[C@@H]23)cc1,> 10 µM (inactive)
12,Cn1cnc(S(=O)(=O)N2C[C@@H](O)COC[C@@H]3O[C@@H](CC(=O)NC4CCCC4)CC[C@H]32)c1,> 10 µM (inactive)
13,CN1CCCCN2[C@H](C1)[C@H](c1ccc(-c3ccc(F)cc3)cc1)[C@@H]2CO,> 10 µM (inactive)
14,CN1C(=O)c2cc(NS(C)(=O)=O)ccc2OC[C@H]2O[C@H](CC(=O)N3CCOCC3)CC[C@H]21,> 10 µM (inactive)
15,CCN1[C@@H]2c3ccc(-c4ccccc4F)c(=O)n3C[C@H]1[C@H](CO)[C@H]2C(=O)NCc1ccc(F)cc1,> 10 µM (inactive)
16,O=C(C[C@@H]1CC[C@H]2[C@@H](COC[C@H](O)CN2C(=O)Nc2cc(Cl)cc(Cl)c2)O1)NCC1CCCCC1,> 10 µM (inactive)
17,CCCNC(=O)N1CC(=O)N2[C@H](CO)[C@H](c3ccc(-c4ccc(F)cc4)cc3)[C@H]2C1,> 10 µM (inactive)
18,O=C(C[C@H]1CC[C@H]2[C@@H](COC[C@@H](O)CN2S(=O)(=O)c2cccc(F)c2)O1)Nc1ccc(-c2ccccc2)cc1,> 10 µM (inactive)
19,CN(C)CC(=O)N1C[C@@H]2[C@H](c3ccccc31)[C@H](CO)N2Cc1cc(F)ccc1F,> 10 µM (inactive)
20,CCNC(=O)Nc1ccc2c(c1)C(=O)N(C)[C@H]1CC[C@H](CC(=O)N[C@@H](C)c3ccccc3)O[C@H]1CO2,> 10 µM (inactive)
21,CN(C)CC(=O)N1CCCCN2[C@H](C1)[C@@H](c1ccc(/C=C/c3ccccc3)cc1)[C@@H]2CO,> 10 µM (inactive)
22,O=C(C[C@H]1CC[C@@H]2[C@H](COC[C@@H](O)CN2Cc2ccccc2)O1)NCCc1ccccc1,> 10 µM (inactive)
23,COc1ccc(-c2ccccc2[C@H]2[C@@H](C#N)N(C(=O)C3CCCCC3)[C@H]2CO)cc1,> 10 µM (inactive)
24,O=C1CNC[C@H]2[C@@H](c3ccc(C4=CCCC4)cc3)[C@H](CO)N12,> 10 µM (inactive)
25,CN1c2ccc(C3=CCCCC3)cc2[C@H]2[C@H](CCN2C(=O)C2CCCC2)[C@@H]1CO,> 10 µM (inactive)
26,Cc1cccc(S(=O)(=O)N2C[C@H](O)COC[C@@H]3O[C@@H](CC(=O)Nc4ccccc4)CC[C@H]32)c1,> 10 µM (inactive)

row,Structure (SMILES),active concentration
1,CN(C)C(=O)C[C@@H]1CC[C@@H]2[C@H](COC[C@H](O)CN2C(=O)C2CC2)O1,> 10 µM (inactive)
2,O=C(Nc1cccc(Cl)c1)N1C[C@@H]2[C@H](c3ccccc31)[C@H](CO)N2CC1CCOCC1,> 10 µM (inactive)
3,CCCC#Cc1ccc([C@H]2[C@@H](CO)N3C(=O)CN(C(=O)CN4CCOCC4)C[C@@H]23)cc1,> 10 µM (inactive)
4,O=C(C[C@H]1CC[C@@H]2[C@H](COC[C@H](O)CN2C(=O)C2CC2)O1)NCc1ccncc1,> 10 µM (inactive)
5,O=C(C[C@@H]1CC[C@@H]2[C@H](COC[C@H](O)CN2S(=O)(=O)c2ccccc2)O1)N[C@H]1CCN(Cc2ccccc2)C1,> 10 µM (inactive)
6,COC(=O)[C@@H]1[C@@H](CO)[C@@H]2Cn3c(ccc(C4=CCCC4)c3=O)[C@@H]2N1C(=O)Cc1cccnc1,> 10 µM (inactive)
7,Cc1cccc(S(=O)(=O)N2C[C@@H](O)COC[C@H]3O[C@@H](CC(=O)Nc4ccccc4)CC[C@@H]32)c1,> 10 µM (inactive)
8,O=C(C[C@@H]1CC[C@H]2[C@@H](COC[C@H](O)CN2C(=O)Nc2ccc(C(F)(F)F)cc2)O1)NCC1CC1,> 10 µM (inactive)
9,O=C(NC1CCCC1)N1CCCCN2[C@H](CO)[C@H](c3ccc(-c4cccnc4)cc3)[C@H]2C1,> 10 µM (inactive)
10,CC(C)NC(=O)N1[C@@H]2CN(C)c3ccccc3[C@@H]2[C@@H]1CO,> 10 µM (inactive)
11,COc1cccc(-c2ccc([C@H]3[C@H]4CNCC(=O)N4[C@H]3CO)cc2)c1,> 10 µM (inactive)
12,CCC(=O)N1CC2(C1)[C@@H](c1ccccc1)[C@@H](CO)N2C(=O)NC(C)C,> 10 µM (inactive)
13,O=C(C[C@H]1CC[C@H]2[C@@H](COC[C@H](O)CN2CCC(F)(F)F)O1)NCC1CC1,> 10 µM (inactive)
14,COc1cc(CN2CC3(CCN(S(=O)(=O)c4cn(C)cn4)CC3)c3c(n(C)c4cc(OC)ccc34)[C@H]2CO)cc(OC)c1,> 10 µM (inactive)
15,CC(=O)N1[C@@H]2c3ccc(-c4cccc(F)c4)c(=O)n3C[C@@H]2[C@@H](CO)[C@@H]1C(=O)NCCCN(C)C,> 10 µM (inactive)
16,COc1ccc(C#Cc2ccc([C@H]3[C@H]4CN(C(=O)c5ccc(F)cc5)CC(=O)N4[C@H]3CO)cc2)cc1,> 10 µM (inactive)
17,O=C(C[C@@H]1CC[C@H]2[C@@H](COC[C@@H](O)CN2C(=O)c2cccnc2)O1)NCc1ccccc1,> 10 µM (inactive)
18,CN(C)C(=O)C[C@@H]1CC[C@H]2[C@H](COc3ccc(NC(=O)c4ccc(F)cc4)cc3C(=O)N2C)O1,> 10 µM (inactive)
19,CN1CCN(C(=O)C[C@@H]2CC[C@@H]3[C@H](COC[C@@H](O)CN3CC3CC3)O2)CC1,> 10 µM (inactive)
20,COc1ccc(-c2ccccc2[C@@H]2[C@@H](C#N)N(C(=O)NC3CCCCC3)[C@H]2CO)cc1,> 10 µM (inactive)
21,C/C=C/c1ccc([C@@H]2[C@H](CO)N3CCCCN(S(=O)(=O)c4ccc(OC)cc4)C[C@@H]23)cc1,> 10 µM (inactive)
22,CN1C[C@@H]2[C@H](c3ccccc31)[C@@H](CO)N2C(=O)Nc1cccc(F)c1,> 10 µM (inactive)
23,O=C(Cc1ccccn1)N1[C@H](CO)[C@@H]2c3ccccc3NC[C@@H]21,> 10 µM (inactive)
24,COCC(=O)N1[C@H](CO)[C@H](c2ccccc2-c2ccc(C)cc2)[C@@H]1C#N,> 10 µM (inactive)
25,O=C(c1ccccc1F)N1CC[C@H]2[C@H](CO)Nc3ccc(Br)cc3[C@H]21,> 10 µM (inactive)
